The values that follow come from patent EP2878306B1, “MODIFIED PEPTIDE, CB RECEPTOR LIGAND, KIT, IN VITRO PROCESS FOR […] RECEPTOR BONDS, USES, PHARMACEUTICAL COMPOSITION FOR […] RECEPTOR ACTIVITY” (Proteimax Biotecnologia Ltda, priority 2012, dated 2014).

No end group written: not given here.

Data set [1] deals with T1, CB1 receptor (Homo sapiens, UniProt P21554).
T1 construct: ligand for CB1 receptor through ELISA with striate membranes (5µg/pool) treated with 1µM of each drug; from tissue; host or cells: striatal ('striate') membranes
T1 sequence (P21554 whole entry): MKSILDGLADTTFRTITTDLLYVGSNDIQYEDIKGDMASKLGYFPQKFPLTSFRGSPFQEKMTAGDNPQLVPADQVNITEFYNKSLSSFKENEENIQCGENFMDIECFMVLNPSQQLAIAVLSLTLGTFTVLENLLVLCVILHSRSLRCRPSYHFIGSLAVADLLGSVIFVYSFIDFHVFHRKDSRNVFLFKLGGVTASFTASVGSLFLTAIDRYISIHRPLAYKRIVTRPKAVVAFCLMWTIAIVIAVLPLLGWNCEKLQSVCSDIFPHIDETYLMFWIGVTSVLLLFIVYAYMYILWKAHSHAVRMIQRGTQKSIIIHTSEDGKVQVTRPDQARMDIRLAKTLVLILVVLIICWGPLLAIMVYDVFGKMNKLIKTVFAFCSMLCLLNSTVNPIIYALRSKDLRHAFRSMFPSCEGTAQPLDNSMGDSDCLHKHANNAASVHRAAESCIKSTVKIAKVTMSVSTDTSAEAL
As to the kind of experiment: ELISA with striate membranes and anti-CB1 antibody, receptor activating percentage regarding the control. It counts as biochemical. As to conditions: for activity in CB1 receptors: striate membranes 5µg/pool, 1µM of each drug, 2 hours, ambient temperature, compared to control and SeqID:1. How it is done:
(§1) The receptor activating percentage was calculated regarding the control, non-treated membrane (100%). […] Significant differences are indicated and p<0.05.

Data set [2] deals with CB2 receptor. The data set can be described thus: ELISA with striate membranes for CB2 receptor, receptor activating percentage regarding the control. It counts as biochemical. As to the method:
as §1

The test system of data set [3] is Thin wistar rats. The data set can be described thus: Test in Retroperitoneal adipose tissue. It counts as in vivo. As to conditions: 100 ug/Kg, 3 days orally; in comparison with Rimonabant and/or saline; scale g/100g. How it is done: The measure of the adipose tissue was performed after finishing the treatment. The results are expressed by the retroperitoneal adipose tissue weight measured for treatment purpose (scale of g/100g). Rats administered with vehicle (saline) were subject to the same protocol (control).

Data set [4] has as its system animals supplemented with 20% saccharose. The data set can be described thus: Determination of the amount of mesenteric adipose tissue in animals supplemented with 20% saccharose. It counts as in vivo, Wistar rats. As to conditions: after the 30th day of treatment, in comparison to further groups. As to the method: (§2) Wistar rats fed with standard regimen supplemented with 20% saccharose were used in the drinking water during 60 days before and during the 30 days-treatment with SALINE (negative control), Rimonabant (positive control), Peptide 19 (Pep 19) in the concentration of 50µg/Kg and Peptide 19 (Pep 19) in the concentration of 100 µg/Kg.

Data set [5] concerns Rats. The data set can be described thus: Depression model (forced swim). The following applies: stated as contrary to Rimonabant. It counts as in vivo. As to the method:
The forced swim test was performed based on the previous tests ([Harkin et al., 2004], [Petit-Demouliere et al., 2005] and [Treit and Menard, 1998]).

The subject of data set [6] is Thin wistar rats. As to the kind of experiment: Test in Brown adipose tissue. It counts as in vivo. As to conditions: 100 ug/Kg, 3 days orally; in comparison with Rimonabant and/or saline; scale g/100g. How it is done: The measure of the adipose tissue was performed after finishing the treatment. The results are expressed by the brown adipose tissue weight measured at the treatment end (scale of g/100g). Rats administered with vehicle (saline) were subject to the same protocol (control).

Data set [7] deals with Thin wistar rats. The data set can be described thus: Adiposity ratio determination. It counts as in vivo. As to conditions: 100 ug/Kg, 3 days orally; in comparison with Rimonabant and/or saline. How it is done: Thin wistar rats were treated with a Rimonabant dosage (100 ug/Kg) or peptide 19 (Pep 19 100 ug/Kg) during 3 days orally. The measure of the adiposity ratio was performed after finishing the treatment using the formula (%), (I=Σ fat deposits/body weight x 100). The results are expressed by the animal weight measured at the treatment end (scale of g/100g). Rats administered with vehicle (saline) were subject to the same protocol (control).

Data set [8] deals with Thin wistar rats. As to the kind of experiment: Serum leptin concentration determination. It counts as in vivo. The following applies: 100 ug/Kg, 3 days orally; in comparison with saline. How it is done:
Thin wistar rats were treated with a Rimonabant dosage (100 ug/Kg) or peptide 19 (Pep 19 100 ug/Kg) during 3 days orally. The measure of the serum leptin concentration was performed after finishing the treatment. The results are expressed ng/mL. Rats administered with vehicle (saline) were subject to the same protocol (control).

Data set [9] deals with Thin wistar rats. The data set can be described thus: Test in Gonadal adipose tissue. It counts as in vivo. The following applies: 100 ug/Kg, 3 days orally; in comparison with Rimonabant and/or saline; scale g/100g. How it is done: The measure of the adipose tissue was performed after finishing the treatment. The results are expressed by the gonadal adipose tissue weight measured at the treatment end (scale of g/100g). Rats administered with vehicle (saline) were subject to the same protocol (control).

The subject of data set [10] is animals supplemented with 20% saccharose. As to the kind of experiment: Determination of the amount of inguinal adipose tissue in animals supplemented with 20% saccharose. It counts as in vivo, Wistar rats. As to conditions: 100µg/Kg; after the 30th day of treatment; in comparison to further groups. How it is done: as §2
The test system is the same in data set [11]. The data set can be described thus: Determination of the insulinemia in animals supplemented with 20% saccharose. As to conditions: 100 µg/Kg; after 30 days-treatment. It counts as in vivo, Wistar rats. How it is done:
as §2

For data set [12] the test system is unchanged. As to the kind of experiment: Determination of the adiposity ratio in animals supplemented with 20% saccharose (Example 26). It counts as in vivo, Wistar rats. The following applies: 600µg/Kg; 30 days-treatment; in comparison to further groups. How it is done:
(§3) Wistar rats fed with standard regimen supplemented with 20% saccharose were used in the drinking water during 60 days before and during the 30 days-treatment with SALINE (negative control), Rimonabant (positive control), Peptide 19 (Pep 19) in the concentration of 100µg/Kg, 300µg/Kg and 600µg/Kg.

In data set [13] the test system is Thin wistar rats. The data set can be described thus: Test in Mesenteric adipose tissue. As to conditions: 100 ug/Kg, 3 days orally; in comparison with Rimonabant and/or saline; scale g/100g. It counts as in vivo. How it is done: The measure of the adipose tissue was performed after finishing the treatment. The results are expressed by the mesenteric adipose tissue weight measured at the treatment end (scale of g/100g). Rats administered with vehicle (saline) were subject to the same protocol (control).

Data set [14] concerns non-obese wistar rats. As to the kind of experiment: Treatment acute model, 3 days orally (Figures 4 to 9). It counts as in vivo. The text has this: Furthermore, in a treatment acute model (3 days of treatment orally in non-obese wistar rats) it was verified the brown adipose tissue activation, the retroperitoneal, inguinal and brown adipose tissues reduction, as well the adiposity ratio (Figures 4 to 9), effects not observed with Rimonabant.

Data set [15] relates to animals supplemented with 20% saccharose. As to the kind of experiment: Determination of the cholesterol in animals supplemented with 20% saccharose. It counts as in vivo, Wistar rats. As to conditions: after 30 days-treatment. How it is done:
as §2

Data set [16] has the same test system. The data set can be described thus: Determination of Triglycerides in animals supplemented with 20% saccharose. It counts as in vivo, Wistar rats. As to conditions: 100 µg/Kg; after 30 days-treatment. How it is done:
as §2

Data set [17] shares this test system. The data set can be described thus: Determination of the blood pressure in animals supplemented with 20% saccharose. It counts as in vivo, Wistar rats. The following applies: 600µg/Kg; 30 days-treatment; in comparison to further groups. How it is done:
as §3

The subject of data set [18] is Thin wistar rats. The data set can be described thus: Test in Inguinal adipose tissue. It counts as in vivo. As to conditions: 100 ug/Kg, 3 days orally; in comparison with Rimonabant and/or saline; scale g/100g. As to the method:
The measure of the adipose tissue was performed after finishing the treatment. The results are expressed by the inguinal adipose tissue weight measured at the treatment end (scale of g/100g). Rats administered with vehicle (saline) were subject to the same protocol (control).

In data set [19] the test system is animals supplemented with 20% saccharose. As to the kind of experiment: Determination of the weight in animals supplemented with 20% saccharose. It counts as in vivo, Rats wistar. As to conditions: 100 µg/Kg; 3th to 5th week of treatment. As to the method: Rats wistar fed with standard regimen supplemented with 20% saccharose were used in the drinking water during 60 days before and during the 30 days-treatment with SALINE (negative control), Rimonabant (positive control), Peptide 19 (Pep 19) in the concentration of 50µg/Kg and Peptide 19 (Pep 19) in the concentration of 100 µg/Kg.

Data set [20] has the same test system. As to the kind of experiment: Glucose in animals supplemented with 20% saccharose. It counts as in vivo, Winstar rats. The following applies: 100 µg/Kg; 15th and 30th days of treatment. As to the method: Winstar rats fed with standard regimen supplemented with 20% saccharose were used in the drinking water during 60 days before and during the 30 days-treatment with SALINE (negative control), Rimonabant (positive control), Peptide 19 (Pep 19) in the concentration of 50µg/Kg and Peptide 19 (Pep 19) in the concentration of 100 µg/Kg.

Data set [21] shares this test system. As to the kind of experiment: Determination of the adiposity ratio in animals supplemented with 20% saccharose (Example 25). It counts as in vivo, Wistar rats. The following applies: 100µg/Kg; 30 days-treatment; in comparison to further groups. As to the method: as §2
Data set [22] has the same test system. The data set can be described thus: Determination of the amount of gonadal adipose tissue in animals supplemented with 20% saccharose. It counts as in vivo, Wistar rats. As to conditions: 100µg/Kg; after the 30th day of treatment; in comparison to further groups. As to the method:
as §2

On to DIIADDE [SeqID:4], for which the “Result (activity regarding the CB1)” value in [1] (Table 1 summary) is “Increases the activity regarding the CB1”. In [1], the “activity in CB1 receptors” value is recorded as “improved inverse agonist activity in CB1 receptors”.

In the case of “Cyclic peptide -Asp-Ile-Ile-Ala-Asp-Asp-Glu-Pro-Leu-Thr- [Example 6]”, the “Result (change in the activity of the cyclic form)” value in data set [1] (Table 1 summary, in vitro, receptor not stated) is recorded as “Change in the activity was not detected”.

DIIADDEALT [SeqID:5]: the “Result (high dosages)” value in data set [1] (Table 1 summary, high dosages) was “became agonist”. Moreover, the “Result (low dosages)” value in data set [1] (Table 1 summary, low dosages) is given as “the inverse agonist activity was not detected”. Also, the “activity in the endocannabinoid receptors, high dosages” value in data set [1] (high dosages, different dosages of each drug, 2 hours (Figure 14, CB1 receptor)) is reported as “agonist activity”. Besides, the “activity in the endocannabinoid receptors, low dosages” value in [1] (low dosages, different dosages of each drug, 2 hours (Figure 14, CB1 receptor)) is given as “activity inverse agonist”.

For the substance DIIADDAPLT [SeqID:3], in [1] (Table 1 summary), the “Result (activity regarding the CB1)” value is given as “Reduces the activity regarding the CB1 (comparatively the SeqID:1)”. Moreover, the “activity in CB1 receptors” value in data set [1] is “smaller activity in CB1 receptors”.

Take DILADDEPLT [SeqID:2]: the “Result (activity in CB2)” value in [2] (Table 1 summary) is “raises a strong inverse agonist activity in CB2”. The “activity in CB2 receptors” value in data set [2] (striate membranes 5µg/pool, 1 µM of each drug, 2 hours, ambient temperature) is on record as “inverse agonist of the CB2 receptor”. Besides, the “Result (activity regarding the CB1)” value in [1] (Table 1 summary) is listed as “Reduces the activity regarding the CB1”.

On to DIIADDEPLT [SeqID:1], for which the “retroperitoneal adipose tissue mass” value in data set [3] is reported as “smaller”. Moreover, the “mesenteric adipose tissue, corrected by the body weight” value in data set [4] (50 µg/Kg) is listed as “lower percentages of mesenteric adipose tissue”. The “mesenteric adipose tissue, corrected by the body weight” value in [4] (100µg/Kg) is recorded as “lower percentages of mesenteric adipose tissue”. The “depression (forced swim, immobility time)” value in [5] is reported as “does not cause depression”. Further, the “brown adipose tissue mass” value in data set [6] is “smaller”. Moreover, the adiposity ratio result in data set [7] is “smaller”. Also, the serum leptin concentration result in data set [8] is “smaller”. In addition, the “gonadal adipose tissue mass” value in [9] is reported as “no difference”. Further, the “inguinal adipose tissue, corrected by the body weight” value in data set [10] was “biggest amounts of inguinal adipose tissue”. The insulinemia result in data set [11] is listed as “lower average of insulinemia”. Moreover, in data set [12], the “adiposity ratio (adipose tissue total mass corrected by the body weight)” value was “lower amounts of adipose tissue”. Besides, the “activity in CB1 receptors” value in data set [1] is on record as “inverse agonist of the CB1 receptor”. Besides, the “mesenteric adipose tissue mass” value in data set [13] was “no difference”. Further, in [14] (3 days of treatment orally), the adiposity ratio entry is reported as “reduction”, the brown adipose tissue result is on record as “reduction”, the “brown adipose tissue activation” value was “activation” and the inguinal adipose tissue entry is “reduction”. The retroperitoneal adipose tissue entry in data set [14] (3 days of treatment orally) is “reduction”. In addition, in [14] (oral administration), the “activity when administered orally” value is on record as “has activity even when administered orally”. The “cholesterol percentages (% from SALINE)” value in data set [15] (50µg/Kg) was “lower cholesterol percentages”. The “cholesterol percentages (% from SALINE)” value in data set [15] (100 µg/Kg) is recorded as “lower cholesterol percentages”. In addition, in data set [16], the “percentages of triglycerides (% from SALINE)” value is listed as “lower percentages of triglycerides”. The blood pressure result in data set [17] is given as “lower blood pressure”. For the same substance, the “inguinal adipose tissue mass” value in data set [18] is recorded as “smaller”. The “weight percentages (% from the animals weight treated with SALINE)” value in data set [19] is given as “lower weight percentages”. In addition, in data set [20], the glycaemia entry is given as “lower glycaemia”. Further, in data set [21], the “adiposity ratio (adipose tissue total mass corrected by the body weight)” value is “biggest amounts of adipose tissue”. Moreover, the “gonadal adipose tissue, corrected by the body weight” value in data set [22] was “lower percentages of gonadal adipose tissue”.
